Legend:
[1] = Pharmacokinetics in rat; conditions: in vivo
Source text: (§1) In vivo data for (5R,6S)-6-[(1R)-hydroxy ethyl]-2-[4-(1-pyridinio)methylphenyl]oxymethylpenem-3-carboxylate (example 1, Compound 5,FCE 24386)

[2] = Pharmacokinetics in mouse; conditions: in vivo
Source text: as §1

[3] = test system: Escherichia coli G II; assay: Experimental infection in mice, Escherichia coli G II; type: in vivo, Escherichia coli G II (infected mice); conditions: intraperitoneal infection, 3 × LD50 challenge, treatments at 30, 90 and 360 minutes after infection
Method: (§2) ^1 Intraperitoneal infection in mice with a 3 × LD50
(§3) challenge; treatments at 30, 90 and 360 minutes after infection.

[4] = test system: Staphilococcus aureus Smith; assay: Experimental infection in mice, Staphilococcus aureus Smith; type: in vivo, Staphilococcus aureus Smith (infected mice); conditions: Mus musculus, intraperitoneal infection, 3 × LD50 challenge, treatments at 30, 90 and 360 minutes after infection
Method: as §2, §3

SMILES: C[C@@H](O)[C@H]1C(=O)N2C(C(=O)[O-])=C(COc3ccc(C[n+]4ccccc4)cc3)S[C@H]12 [Compound 5, (5R,6S)-6-[(1R)-hydroxyethyl]-2-[4-(1-pyridinio)methylphenyl]oxymethylpenem-3-carboxylate]
- AUC [1]: 103000 ng·h/mL
- half-life ([1]; read-out: t 1/2β): 28 min
- Fa ([2]; sc, Mouse, s.c., read-out: % Absorption s.c.): 100%
- AUC ([2]; mouse): 56000 ng·h/mL
- half-life ([2]; mouse, read-out: t 1/2β): 27 min
- ED50 [3]: 1.55 mg/kg
- ED50 [4]: < 0.032 mg/kg

— patent US4886793A, “Penem derivatives” (Farmitalia Carlo Erba, S.r.l., priority 1986, dated 1989)
